# Assays:
# Assay type in all cases: in vivo, mouse
# [1] = Body, gonad and organ weights of treated mice
# liver glycogen = assay: Liver glycogen levels in fed or starved mice; conditions: 250 mg/kg/day
# Experimental: Liver glycogen levels were measured in untreated and NN-DGJ-treated mice (FIG. 6B), who were either provided food or starved.
# male C57BL/6 mice = assay: Mating assay, fertility of male mice; conditions: 250 mg/kg/day
# From the text: Treatment of mice—Male C57BL/6 mice were housed under standard non-sterile conditions. The mice were provided with water ad lib. and prior to drug administration were fed a diet of pelleted mouse chow (expanded Rat and Mouse Chow 3, SDS Ltd.) To administer the compounds of the present invention, the mice were fed a diet of powdered mouse chow (expanded Rat and Mouse Chow 1, ground, SDS Ltd.) containing either NB-DNJ, NB-DGJ, NN-6-MeDGJ, or DNJ. The diet and compound (both as dry solids) were mixed thoroughly, stored at room temperature, and used within 7 days of mixing.
# Mating assays—To assess the fertility of male mice that were fed on a diet containing an iminosugar, a mating assay was used: typically six week old male C57BL/6 mice in groups of three were administered diet containing compound for five weeks (unless otherwise specified), after which each of them was caged with four untreated female C57BL/6 mice, and provided with standard pelleted chow. Females were at least 11 weeks old, and age-matched in each experiment. The male was removed from the females after 7 or 9 days, depending on the experiment; the females were monitored for vaginal mucous plugs, pregnancies, and, if any, litter sizes. To study any effect on female fertility six-week-old female C57BL/6 mice were treated with NB-DNJ for five weeks, after which each of them was caged with a non-treated age-matched male for four days.
compound,measurement,setting,value
CCCCCCCCCN1C[C@H](O)[C@@H](O)[C@@H](O)[C@H]1CO [NN-DGJ],thymus and spleen weights,[1]; 250 mg/kg/day,did not affect
same,body weight relative to untreated mice,"[1]; 250 mg/kg/day over a 40 day period, n=8",did not affect
same,breakdown of liver glycogen during starvation,liver glycogen,did not inhibit
same,fertility of male mice,"male C57BL/6 mice; after five weeks of treatment, four treated mice",completely suppressed
same,litter size compared with untreated males,male C57BL/6 mice; six weeks after withdrawal,almost the same
same,fertility of male mice after withdrawal,male C57BL/6 mice; six weeks following withdrawal,fully regained fertility

# From patent US20040019082A1, “Reversible infertility in male mice following oral administration of alkylated imino sugars: a non-hormonal approach to male contraception” (United Therapeutics Corporation, priority 2002, published 2004)
